{"source": "patent US20220409681A1", "about": "“LACTOBACILLUS SALIVARIUS LS97 AND APPLICATION THEREOF” (WECARE PROBIOTICS CO., LTD., priority 2019, published 2022)", "key": {"[1]": {"assay": "Rat dental caries model: body weight", "format": "in vivo, Wistar rats", "protocol": "(§1) SPF female Wistar rats (about 3 weeks old) were obtained and housed in a barrier environment with constant temperature and humidity, with 12 h of light and 12 h of darkness. All rats were acclimated to the environment and diet in a week before experiment, and then were randomly divided into groups according to body weight. The rats were randomly divided into 4 groups according to body weight with 10 rats in each group, among which one group was set as the blank control group (blank group), one group was set as the dental caries model group (dental caries group), and two groups were set as the intervention group. The intervention groups were wiped S. sobrinus continuously for 7 days, and after confirming that S. sobrinus was successfully colonized in the rat's oral cavity, the corresponding experimental groups were wiped chlorhexidine (chlorhexidine group) and LS97 (LS97 group) continuously for 7 days respectively, and then 3 times a week. Chlorhexidine, an ionic drug with good antibacterial effect, was used as a positive control group. The cariogenic bacteria S. sobrinus and LS97 were both cultured overnight for 12 h. After adjusted to a bacterial concentration of 1×10^8 CFU/mL, 0.2 mL of bacterial suspension was wiped onto the rat molars by sterile cotton swab, and namely, the cotton swab that absorbed bacterial suspension sufficiently worked on each quarter of the rat's oral teeth for the same 15 s. During the experiment, except for the blank control group fed normal feed and drinking water, other groups were all fed cariogenic feed Diet 2000# and drinking water added with 5% sucrose, in which the main components of cariogenic feed are shown in Table 4. The experimental period was maintained for 10 weeks."}, "[2]": {"test_system": "Streptococcus sobrinus", "assay": "Rat dental caries model: oral S. sobrinus count and Keyes caries score", "format": "in vivo, Wistar rats", "protocol": "as §1\nAt the 3rd, 7th, and 10th weeks of the experiment (corresponding to the early, middle and late stages of the experiment, respectively), the first, second and third samplings were performed on the oral teeth of rats, and samples were spread on MRS solid medium added with vancomycin of 12 μg/mL for Streptococcus sobrinus count.\nAfter the rat experiment was finished, the rats were killed and the rat molars were taken out. The molars were placed in a 0.4% murexide dye liquor and soaked for 12 h overnight for dyeing. After the molars were rinsed by clean water and dried naturally, the caries lesion condition of rat molars in each group was observed under a stereo microscope. Caries scoring was performed on the rat teeth by using the Keyes caries scoring method. According to Keyes' classic method for evaluating dental caries, the lesion degree of dental caries is divided into four grades: E-grade caries, caries lesion involving enamel only; Ds-grade caries, enamel caries lesion and caries lesion involving the outer dentin less than ¼; Dm-grade caries, caries lesion involving the dentin thickness within ¼ to ¾; Dx-grade caries, caries lesion involving the dentin thickness more than ¾, and the result is shown in FIG. 4."}, "[3]": {"details": "Keyes caries scoring, FIG. 4, versus dental caries model group"}}}
{"smiles": "[H]/N=C(\\N/C(=N/[H])NCCCCCCNC(=N)NC(=N)Nc1ccc(Cl)cc1)Nc1ccc(Cl)cc1", "note": "[Chlorhexidine]", "values": [{"measurement": "Body weight of rats after the experiment", "setting": "[1]; 10 weeks", "result": "212.49 ± 23.86", "unit": "g"}, {"measurement": "Rat body weight increment", "setting": "[1]; 10 weeks", "result": "147.83 ± 19.73", "unit": "g"}, {"measurement": "Body weight of rats before the experiment", "setting": "[1]; baseline", "result": "60.32 ± 5.28", "unit": "g"}, {"measurement": "Effect on Dm caries (in words)", "setting": "[2]; [3]", "result": "not obvious"}, {"measurement": "Effect on E caries and Ds caries (in words)", "setting": "[2]; [3]", "result": "effectively reduced"}, {"measurement": "Change of the number of Streptococcus sobrinus in the oral cavity (in words)", "setting": "[2]; after intervention, chlorhexidine statement refers to the third test", "result": "showed an increment circumstance"}, {"measurement": "Count of Streptococcus sobrinus in oral sampling", "setting": "[2]; sampling number 1, 3rd week", "result": "5.53 ± 0.23", "unit": "Log value"}, {"measurement": "Count of Streptococcus sobrinus in oral sampling", "setting": "[2]; sampling number 2, 7th week", "result": "4.00 ± 0.19", "unit": "Log value"}, {"measurement": "Count of Streptococcus sobrinus in oral sampling", "setting": "[2]; sampling number 3, 10th week", "result": "4.31 ± 0.13", "unit": "Log value"}]}
